Assay results published in the supplement of paper PMC9663587.

Tests used:
[1] = compound: COc1cc2c(Oc3ccc4[nH]c(C)cc4c3F)ncnc2cc1OCCCN1CCCC1 [Cediranib/AZD2171]
[2] = compound: CC(C)Nc1cc(-c2c[nH]c(C(=O)N[C@H](CO)c3cccc(Cl)c3)c2)c(Cl)cn1 [BVD523]
[3] = compound: C=CCn1c(=O)c2cnc(Nc3ccc(N4CCN(C)CC4)cc3)nc2n1-c1cccc(C(C)(C)O)n1 [AZD1775]
[4] = compound: CC(=O)Nc1cccc(-n2c(=O)n(C3CC3)c(=O)c3c(Nc4ccc(I)cc4F)n(C)c(=O)c(C)c32)c1
[5] = compound: T1, CN(C)C/C=C/C(=O)Nc1ccc(C(=O)Nc2cccc(Nc3ncc(Cl)c(-c4c[nH]c5ccccc45)n3)c2)cc1 [THZ1]
[6] = compound: T2, CN(C)C/C=C/C(=O)Nc1ccc(C(=O)N2CCC[C@@H](Nc3ncc(Cl)c(-c4c[nH]c5ccccc45)n3)C2)cc1 [THZ531]
[7] = compound: CCCCOc1c(C(=O)c2c(F)cc(C)cc2F)c[nH]c2nncc1-2
[8] = compound: Cc1nc(NC(=O)N2CCC[C@H]2C(N)=O)sc1-c1ccnc(C(C)(C)C(F)(F)F)c1 [Alpelisib/BYL719]
[9] = compound: CNCc1ccc(-c2[nH]c3cc(F)cc4c3c2CCNC4=O)cc1 [Rucaparib]
[10] = compound: CN1CCN(CCOc2cc(OC3CCOCC3)c3c(Nc4c(Cl)ccc5c4OCO5)ncnc3c2)CC1 [Saracatinib/AZD0530]
[11] = compound: COc1ccc2c(c1)[C@]1(C[C@H]1c1ccc3c(/C=C/c4ccc(CN5C[C@@H](C)O[C@@H](C)C5)cc4)n[nH]c3c1)C(=O)N2
[12] = compound: C=CC(=O)Nc1ccc(C(=O)Nc2[nH]nc3c2CN(C(=O)N[C@H](CN(C)C)c2ccccc2)C3(C)C)cc1 [YKL-5-124]; test: increase in dead-cell fraction, 72 h; higher = more death;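 further: breast cancer cell lines in 384-well plates, stained with Hoechst plus LIVE/DEAD far red dye and imaged, cells above an LDR intensity threshold counted dead, Hoechst-negative corpses included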
[13] = compound: CCc1cnn2c(NCc3ccc[n+]([O-])c3)cc(N3CCCC[C@H]3CCO)nc12; test: as above
[14] = compound: CCOc1cc2ncc(C#N)c(Nc3ccc(OCc4ccccn4)c(Cl)c3)c2cc1NC(=O)/C=C/CN(C)C [Neratinib/HKI272]; test: as above
[15] = compound: T1, THZ1; test: as above
[16] = compound: T2, THZ531; test: as above
[17] = compound: CC(=O)c1c(C)c2cnc(Nc3ccc(N4CCNCC4)cn3)nc2n(C2CCCC2)c1=O; test: as above
[18] = compound: CC(=O)c1c(C)c2cnc(Nc3ccc(N4CCN(CCOCCOCCOCCNC(=O)COc5cccc6c5C(=O)N(C5CCC(=O)NC5=O)C6=O)CC4)cn3)nc2n(C2CCCC2)c1=O [BSJ-03-123]; test: as above
[19] = compound: CN(C)C(=O)c1cc2cnc(Nc3ccc(N4CCNCC4)cn3)nc2n1C1CCCC1 [LEE011/Ribociclib]; test: as above
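Wherever GR50, 72 h is given: breast cancer and non-malignant breast epithelial cell lines, Deep Dye Drop or Dye Drop imaging, nine half-log doses, GR normalized to time-zero plates and DMSO-only controls.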

HCC1569
GR50, 72 h [1]: > 10 µM | GR50, 72 h [2]: > 10 µM | GR50, 72 h [3]: 0.00634 µM | GR50, 72 h [4]: > 1 µM | GR50, 72 h [5]: 0.0283 µM | GR50, 72 h [6]: 0.0461 µM | GR50, 72 h [7]: 0.0109 µM | GR50, 72 h [8]: 5.28 µM | GR50, 72 h [9]: > 10 µM | GR50, 72 h [10]: 3.28 µM | GR50, 72 h [11]: 0.00952 µM | increase in dead-cell fraction ([12]; 0.001 µM): 0.0331 | increase in dead-cell fraction ([12]; 0.003162 µM): 0.014 | increase in dead-cell fraction ([12]; 0.01 µM): -0.0042 | increase in dead-cell fraction ([12]; 0.03162 µM): 0.0104 | increase in dead-cell fraction ([12]; 0.1 µM): -0.0403 | increase in dead-cell fraction ([12]; 0.3162 µM): 0.0447 | increase in dead-cell fraction ([12]; 1 µM): 0.0404 | increase in dead-cell fraction ([12]; 3.162 µM): 0.0237 | increase in dead-cell fraction ([12]; 10 µM): 0.151 | increase in dead-cell fraction ([13]; 0.0001 µM): -0.0022 | increase in dead-cell fraction ([13]; 0.0003162 µM): -0.0018 | increase in dead-cell fraction ([13]; 0.001 µM): -0.0077 | increase in dead-cell fraction ([13]; 0.003162 µM): -0.0052 | increase in dead-cell fraction ([13]; 0.01 µM): 0.0106 | increase in dead-cell fraction ([13]; 0.03162 µM): 0.112 | increase in dead-cell fraction ([13]; 0.1 µM): 0.155 | increase in dead-cell fraction ([13]; 0.3162 µM): 0.138 | increase in dead-cell fraction ([13]; 1 µM): 0.141 | increase in dead-cell fraction ([14]; 0.0003162 µM): -0.0105 | increase in dead-cell fraction ([14]; 0.001 µM): 0.0063 | increase in dead-cell fraction ([14]; 0.003162 µM): 0.0037 | increase in dead-cell fraction ([14]; 0.01 µM): 0.0107 | increase in dead-cell fraction ([14]; 0.03162 µM): 0.0135 | increase in dead-cell fraction ([14]; 0.1 µM): 0.0196 | increase in dead-cell fraction ([14]; 0.3162 µM): 0.0247 | increase in dead-cell fraction ([14]; 1 µM): 0.0283 | increase in dead-cell fraction ([14]; 3.162 µM): 0.0338 | increase in dead-cell fraction ([15]; 0.0001 µM): -0.004 | increase in dead-cell fraction ([15]; 0.0003162 µM): -0.0128 | increase in dead-cell fraction ([15]; 0.001 µM): 0.0063 | increase in dead-cell fraction ([15]; 0.003162 µM): -0.0051 | increase in dead-cell fraction ([15]; 0.01 µM): 0.0163 | increase in dead-cell fraction ([15]; 0.03162 µM): 0.0231 | increase in dead-cell fraction ([15]; 0.1 µM): 0.208 | increase in dead-cell fraction ([15]; 0.3162 µM): 0.147 | increase in dead-cell fraction ([15]; 1 µM): 0.166 | increase in dead-cell fraction ([16]; 0.0001 µM): 0.0019 | increase in dead-cell fraction ([16]; 0.0003162 µM): -0.0034 | increase in dead-cell fraction ([16]; 0.001 µM): -0.0007 | increase in dead-cell fraction ([16]; 0.003162 µM): 0.0032 | increase in dead-cell fraction ([16]; 0.01 µM): 0.0103 | increase in dead-cell fraction ([16]; 0.03162 µM): 0.0155 | increase in dead-cell fraction ([16]; 0.1 µM): 0.161 | increase in dead-cell fraction ([16]; 0.3162 µM): 0.273 | increase in dead-cell fraction ([16]; 1 µM): 0.0822 | increase in dead-cell fraction ([17]; 0.0003162 µM): 0.0023 | increase in dead-cell fraction ([17]; 0.001 µM): -0.0102 | increase in dead-cell fraction ([17]; 0.003162 µM): 0.0038 | increase in dead-cell fraction ([17]; 0.01 µM): 0.0052 | increase in dead-cell fraction ([17]; 0.03162 µM): -0.0056 | increase in dead-cell fraction ([17]; 0.1 µM): -0.0096 | increase in dead-cell fraction ([17]; 0.3162 µM): 0.0042 | increase in dead-cell fraction ([17]; 1 µM): 0.0001 | increase in dead-cell fraction ([17]; 3.162 µM): -0.0109 | increase in dead-cell fraction ([18]; 0.001 µM): 0.0046 | increase in dead-cell fraction ([18]; 0.003162 µM): -0.0135 | increase in dead-cell fraction ([18]; 0.01 µM): 0.0005 | increase in dead-cell fraction ([18]; 0.03162 µM): 0.0168 | increase in dead-cell fraction ([18]; 0.1 µM): 0.002 | increase in dead-cell fraction ([18]; 0.3162 µM): 0.0007 | increase in dead-cell fraction ([18]; 1 µM): 0.0247 | increase in dead-cell fraction ([18]; 3.162 µM): 0.0066 | increase in dead-cell fraction ([18]; 10 µM): 0.0866 | increase in dead-cell fraction ([19]; 0.001 µM): 0.0294 | increase in dead-cell fraction ([19]; 0.003162 µM): 0.0001 | increase in dead-cell fraction ([19]; 0.01 µM): -0.0082 | increase in dead-cell fraction ([19]; 0.03162 µM): 0.0025 | increase in dead-cell fraction ([19]; 0.1 µM): -0.0135 | increase in dead-cell fraction ([19]; 0.3162 µM): -0.0045 | increase in dead-cell fraction ([19]; 1 µM): -0.0042 | increase in dead-cell fraction ([19]; 3.162 µM): -0.0048 | increase in dead-cell fraction ([19]; 10 µM): -0.0015
